Source: PubChem BioAssay (NCI)
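Dose response: 5 concentrations. Exposure: 48 h. Format: 96-well plates. Endpoint: linear interpolation; highest concentration if not reached. TGI denotes the concentration required for complete inhibition of growth.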

Tests used:
Assay in all cases: inhibition of tumour cell growth, NCI panel, 48 h
MDA-MB-231 breast = system: MDA-MB-231 breast
MDA-MB-435 = system: MDA-MB-435
OVCAR-8 ovarian = system: OVCAR-8 ovarian
KM12 colon = system: KM12 colon
UACC-257 melanoma = system: UACC-257 melanoma
SK-OV-3 ovarian = system: SK-OV-3 ovarian
CCRF-CEM leukemia = system: CCRF-CEM leukemia
SNB-75 CNS = system: SNB-75 CNS
IGROV1 ovarian = system: IGROV1 ovarian
NCI-H226 lung = system: NCI-H226 lung
HT29 colon = system: HT29 colon
HL-60(TB) leukemia = system: HL-60(TB) leukemia
M14 melanoma = system: M14 melanoma
SK-MEL-5 melanoma = system: SK-MEL-5 melanoma
ACHN renal = system: ACHN renal
A549 NSCLC = system: A549 NSCLC
SW-620 colon = system: SW-620 colon
NCI-H23 lung = system: NCI-H23 lung
SK-MEL-28 melanoma = system: SK-MEL-28 melanoma
HCT-116 colon = system: HCT-116 colon
EKVX NSCLC = system: EKVX NSCLC
SF-268 CNS = system: SF-268 CNS
HOP-62 NSCLC = system: HOP-62 NSCLC
BT-549 breast = system: BT-549 breast
MOLT-4 leukemia = system: MOLT-4 leukemia
SNB-19 CNS = system: SNB-19 CNS
NCI-H460 lung = system: NCI-H460 lung
SF-539 CNS = system: SF-539 CNS
UO-31 renal = system: UO-31 renal
SN12C renal = system: SN12C renal
HS 578T breast = system: HS 578T breast
PC-3 prostate = system: PC-3 prostate
T-47D breast = system: T-47D breast
NCI/ADR-RES ovarian = system: NCI/ADR-RES ovarian
RXF 393 renal = system: RXF 393 renal
HCT-15 colon = system: HCT-15 colon
TK-10 renal = system: TK-10 renal
U251 CNS = system: U251 CNS
A498 renal = system: A498 renal
OVCAR-3 ovarian = system: OVCAR-3 ovarian
HCC-2998 colon = system: HCC-2998 colon
MALME-3M melanoma = system: MALME-3M melanoma
MCF7 breast = system: MCF7 breast
SR leukemia = system: SR leukemia
OVCAR-4 ovarian = system: OVCAR-4 ovarian
CAKI-1 renal = system: CAKI-1 renal
786-0 renal = system: 786-0 renal
NCI-H522 lung = system: NCI-H522 lung
RPMI-8226 leukemia = system: RPMI-8226 leukemia
HOP-92 NSCLC = system: HOP-92 NSCLC
OVCAR-5 ovarian = system: OVCAR-5 ovarian
COLO 205 colon = system: COLO 205 colon
SK-MEL-2 melanoma = system: SK-MEL-2 melanoma
LOX IMVI melanoma = system: LOX IMVI melanoma
SF-295 CNS = system: SF-295 CNS
UACC-62 melanoma = system: UACC-62 melanoma
MDA-N = system: MDA-N
DU-145 prostate = system: DU-145 prostate
K-562 leukemia = system: K-562 leukemia

SMILES: c1ccc(-c2nc(-c3ccccc3)c(-c3ccccc3)[nH]2)cc1
- TGI (MDA-MB-231 breast): > 100 µM
- TGI (MDA-MB-435): > 100 µM
- TGI (OVCAR-8 ovarian): > 100 µM
- TGI (KM12 colon): > 100 µM
- TGI (UACC-257 melanoma): > 100 µM
- TGI (SK-OV-3 ovarian): > 100 µM
- TGI (CCRF-CEM leukemia): 36.5 µM
- TGI (SNB-75 CNS): > 100 µM
- TGI (IGROV1 ovarian): > 100 µM
- TGI (NCI-H226 lung): > 100 µM
- TGI (HT29 colon): > 100 µM
- TGI (HL-60(TB) leukemia): 36.9 µM
- TGI (M14 melanoma): > 100 µM
- TGI (SK-MEL-5 melanoma): > 100 µM
- TGI (ACHN renal): > 100 µM
- TGI (A549 NSCLC): > 100 µM
- TGI (SW-620 colon): > 100 µM
- TGI (NCI-H23 lung): > 100 µM
- TGI (SK-MEL-28 melanoma): > 100 µM
- TGI (HCT-116 colon): > 100 µM
- TGI (EKVX NSCLC): > 100 µM
- TGI (SF-268 CNS): > 100 µM
- TGI (HOP-62 NSCLC): > 100 µM
- TGI (BT-549 breast): > 100 µM
- TGI (MOLT-4 leukemia): > 57 µM
- TGI (SNB-19 CNS): > 100 µM
- TGI (NCI-H460 lung): > 100 µM
- TGI (SF-539 CNS): > 100 µM
- TGI (UO-31 renal): > 100 µM
- TGI (SN12C renal): > 100 µM
- TGI (HS 578T breast): > 82 µM
- TGI (PC-3 prostate): > 100 µM
- TGI (T-47D breast): > 100 µM
- TGI (NCI/ADR-RES ovarian): > 100 µM
- TGI (RXF 393 renal): > 100 µM
- TGI (HCT-15 colon): > 100 µM
- TGI (TK-10 renal): > 100 µM
- TGI (U251 CNS): > 100 µM
- TGI (A498 renal): > 100 µM
- TGI (OVCAR-3 ovarian): > 100 µM
- TGI (HCC-2998 colon): > 100 µM
- TGI (MALME-3M melanoma): > 100 µM
- TGI (MCF7 breast): > 100 µM
- TGI (SR leukemia): 46.3 µM
- TGI (OVCAR-4 ovarian): > 100 µM
- TGI (CAKI-1 renal): > 100 µM
- TGI (786-0 renal): > 100 µM
- TGI (NCI-H522 lung): > 100 µM
- TGI (RPMI-8226 leukemia): > 72.9 µM
- TGI (HOP-92 NSCLC): > 100 µM
- TGI (OVCAR-5 ovarian): > 100 µM
- TGI (COLO 205 colon): > 100 µM
- TGI (SK-MEL-2 melanoma): > 100 µM
- TGI (LOX IMVI melanoma): > 100 µM
- TGI (SF-295 CNS): > 100 µM
- TGI (UACC-62 melanoma): > 100 µM
- TGI (MDA-N): > 100 µM
- TGI (DU-145 prostate): > 100 µM

SMILES: NC(=S)Nc1[nH]c(=S)nc2c1SC1=N/C(=C\c3ccco3)C(=O)N12
- TGI (MDA-MB-231 breast): > 100 µM
- TGI (MDA-MB-435): > 100 µM
- TGI (OVCAR-8 ovarian): > 100 µM
- TGI (KM12 colon): > 100 µM
- TGI (UACC-257 melanoma): > 100 µM
- TGI (SK-OV-3 ovarian): > 100 µM
- TGI (CCRF-CEM leukemia): > 85.4 µM
- TGI (SNB-75 CNS): > 100 µM
- TGI (IGROV1 ovarian): > 100 µM
- TGI (NCI-H226 lung): > 100 µM
- TGI (HT29 colon): > 100 µM
- TGI (HL-60(TB) leukemia): 46.8 µM
- TGI (M14 melanoma): > 100 µM
- TGI (SK-MEL-5 melanoma): > 100 µM
- TGI (ACHN renal): > 100 µM
- TGI (A549 NSCLC): > 100 µM
- TGI (SW-620 colon): > 100 µM
- TGI (NCI-H23 lung): > 100 µM
- TGI (SK-MEL-28 melanoma): > 100 µM
- TGI (HCT-116 colon): > 100 µM
- TGI (EKVX NSCLC): > 100 µM
- TGI (SF-268 CNS): > 100 µM
- TGI (HOP-62 NSCLC): > 100 µM
- TGI (BT-549 breast): > 100 µM
- TGI (MOLT-4 leukemia): > 100 µM
- TGI (SNB-19 CNS): > 100 µM
- TGI (NCI-H460 lung): > 100 µM
- TGI (SF-539 CNS): > 100 µM
- TGI (UO-31 renal): > 100 µM
- TGI (SN12C renal): > 100 µM
- TGI (HS 578T breast): > 100 µM
- TGI (PC-3 prostate): > 100 µM
- TGI (T-47D breast): > 100 µM
- TGI (NCI/ADR-RES ovarian): > 100 µM
- TGI (RXF 393 renal): > 100 µM
- TGI (HCT-15 colon): > 100 µM
- TGI (TK-10 renal): > 100 µM
- TGI (U251 CNS): > 100 µM
- TGI (K-562 leukemia): > 66.5 µM
- TGI (A498 renal): > 100 µM
- TGI (OVCAR-3 ovarian): > 100 µM
- TGI (HCC-2998 colon): > 50.4 µM
- TGI (MALME-3M melanoma): > 83.3 µM
- TGI (MCF7 breast): > 100 µM
- TGI (SR leukemia): > 70.7 µM
- TGI (OVCAR-4 ovarian): > 100 µM
- TGI (CAKI-1 renal): > 100 µM
- TGI (786-0 renal): > 100 µM
- TGI (NCI-H522 lung): > 100 µM
- TGI (RPMI-8226 leukemia): > 90.6 µM
- TGI (HOP-92 NSCLC): > 100 µM
- TGI (OVCAR-5 ovarian): > 100 µM
- TGI (COLO 205 colon): > 100 µM
- TGI (SK-MEL-2 melanoma): > 100 µM
- TGI (LOX IMVI melanoma): > 100 µM
- TGI (SF-295 CNS): > 100 µM
- TGI (UACC-62 melanoma): > 100 µM
- TGI (MDA-N): > 100 µM
- TGI (DU-145 prostate): > 100 µM
